According to patent US20260069560A1, “COMPOSITIONS AND METHODS OF USE” (UNIVERSITY OF FLORIDA RESEARCH FOUNDATION, INCORPORATED, priority 2022, published 2026):

Experiments:
[1] = test system: primary mouse splenic CD8+ T cells; assay: Bioassay for IFNγ stimulation in primary splenic CD8+ T cells, flow cytometric analysis; assay type: cell-based; details: for IFNγ stimulation from primary splenic CD8+ T cells: synthetic compounds, concentration range 0.01-1 mM
Procedure: Isolates are cultured in 96-well deep well plates for 3 days under anaerobic conditions in MEGA media. Cell-free supernatant is obtained by filtering cultures by […] syringe filtration. Cell-free supernatant is added to the serum-free culture media of primary mouse splenic CD8+ T cells at a ratio of 1:100, followed by 6 hours of incubation. After incubation, cells are harvested and stained for flow cytometric analysis, which is performed on the BD Fortessa LSR, followed by analysis using FlowJo.
FIGS. 11A-11F illustrate that synthetic cis-Bac430 induces dose-dependent stimulation of IFNγ production. Representative results are shown for IFNγ stimulation from primary splenic CD8+ T cells by cis-Bac430 and trans-Bac430 at a concentration range between 0.01-0.25 mM (FIG. 11A) or between 0.01-1 mM (FIG. 11B). P values calculated using Mann-Whitney U test compared to unstimulated negative control and PMA/Ionomycin-stimulated positive control. Representative results are shown for the percent of live CD8+ T cells from the bioassay for IFNγ stimulation by cis-Bac430 and trans-Bac430 at a concentration range between 0.01-0.25 mM (FIG. 11C) or between 0.01-1 mM (FIG. 11D). P values calculated using Mann-Whitney U test compared to unstimulated negative control and PMA/Ionomycin-stimulated positive control. Representative results are shown for mean±SEM of fecal Bac430 concentration in μM normalized to stool weight from SPF, germ free (GF) or six-consort colonized germ free mice 2 weeks post-colonization (FIG. 11E) or for each member of the six-consort following 3 days anaerobic culture (FIG. 11F).
Feces collected from R mice were used as source material for high-throughput microbial isolation performed with the GALT Prospector technology. Bacterial identification was performed using MALDI-TOF Biotyper and Sanger sequencing. The cell free supernatants and <3 kDa small molecules of 183 Bacteroides isolates were screened for their ability to stimulate IFNγ production via a bioassay using primary CD8+ T cells and flow cytometric analysis. A consortium composed of six IFNγ-stimulating isolates or NR feces was transplanted into a gnotobiotic mouse model of lung cancer and treated with anti-PD-1, with or without anti-IFNγ monoclonal antibody depletion. Tumors were harvested at endpoint for flow cytometric analysis, and blood serum for IFNγ ELISA. […] Vacuum and high-performance liquid chromatography were used to identify fractions from the cell free supernatant of a single stimulating Bacteroides isolate which stimulate IFNγ production.
To summarize, small molecule characterization was performed using LC-MS/MS and computation pipelines for structural prediction. […]

[2] = test system: LLC subcutaneous allograft tumors; assay: Intratumoral injection of cis-Bac430 in combination with anti-PD-1 therapy in lung tumor-bearing mice; assay type: in vivo
Procedure: FIGS. 12A-12G illustrate that intratumoral administration of cis-Bac430 in combination with anti-PD-1 therapy reduces tumor volume and enhances systemic anti-tumor immunity. An experimental schematic is shown for testing anti-PD-1 mediated anti-tumor effect in combination with intratumoral injection of cis-Bac430 or DMSO control (FIG. 12A). Representative results are shown for the growth curve of LLC subcutaneous allograft tumors receiving intratumoral injection of either cis-Bac430 (0.043 mg/mouse) or DMSO alone at the same time as anti-PD-1 treatment or saline control (FIG. 12n). Each point represents tumor volume mean±SEM. At day 20, P values are calculated by Mann-Whitney U test. Representative results are shown for the mean±SEM of tumor weight at the endpoint for mice treated with an anti-PD-1 monoclonal antibody or saline control that received intratumoral injection of either cis-Bac430 or DMSO (FIG. 12C). P values are calculated by Mann-Whitney U test. Representative results are shown for the mean±SEM of intratumoral CD8+ frequency at endpoint for mice treated with an anti-PD-1 monoclonal antibody or saline control that received intratumoral injection of either cis-Bac430 or DMSO (FIG. 12D). P values are calculated by Mann-Whitney U test. Representative results are shown for the mean±SEM of intratumoral IFNγ+CD8+ frequency at endpoint for mice treated with an anti-PD-1 monoclonal antibody or saline control that received intratumoral injection of either cis-Bac430 or DMSO (FIG. 12E). P values are calculated by Mann-Whitney U test. Representative results are shown for the mean±SEM of splenic CD8+ frequency at endpoint for mice treated with an anti-PD-1 monoclonal antibody or saline control that received intratumoral injection of either cis-Bac430 or DMSO (FIG. 12F). P values are calculated by Mann-Whitney U test. Representative results are shown for the mean±SEM of splenic IFNγ+CD8+ frequency at endpoint for mice treated with an anti-PD-1 monoclonal antibody or saline control that received intratumoral injection of either cis-Bac430 or DMSO (FIG. 12G). P values are calculated by Mann-Whitney U test.
Lung tumor-bearing mice were injected intratumorally with a 10 μL volume of either 10 mM (0.043 mg/dose) cis-Bac430 or DMSO on each day of anti-PD-1 therapy (FIG. 12A).

[3] = combined with anti-PD-1, endpoint
[4] = intratumoral 0.043 mg/dose on each day of anti-PD-1 therapy, compared to anti-PD-1 or DMSO injection
[5] = intratumoral administration, endpoint

| Compound | proliferative effect on CD8+ T cells (percent of live CD8+ T cells) ([1]; higher concentrations) | IFNγ stimulation from primary splenic CD8+ T cells [1] | IFNγ stimulation from primary splenic CD8+ T cells ([1]; listed as Cis-Bac430) | frequency of intratumoral CD8+ T cells [2, 3] | tumor infiltrating cytotoxic IFNγ+CD8+ T cells [2, 3] | tumor volume at endpoint [2, 4] | tumor weight at endpoint [2, 4] | splenic IFNγ+CD8+ T cells [2, 5] | splenic overall CD8+ T cell frequency [2, 5] |
| --- | --- | --- | --- | --- | --- | --- | --- | --- | --- |
| CCCCCC/C=C\CCCCCCCCCC(=O)N[C@@H](Cc1ccccc1)C(=O)O [cis-Bac430] | mild proliferative effect | dose dependent bioactivity | robustly stimulate IFNγ | increased frequency | trend toward increased | significantly smaller | significantly smaller | trend toward increased | decreased |
| CCCCCC/C=C/CCCCCCCCCC(=O)N[C@@H](Cc1ccccc1)C(=O)O [trans-Bac430] | – | does not demonstrate bioactivity | – | – | – | – | – | – | – |
